The experiment addresses HIV-1 protease (Human immunodeficiency virus type 1 group M subtype B, UniProt P04585). As to the kind of experiment: biochemical. To be noted: for inhibition at 0.41 µM: read-out: HIV-1 Protease % Inhib, dose 0.410 uM; for inhibition at 1.23 µM: read-out: HIV-1 Protease % Inhib, dose 1.230 uM; for inhibition at 3.7 µM: read-out: HIV-1 Protease % Inhib, dose 3.700 uM; for inhibition at 11 µM: read-out: HIV-1 Protease % Inhib, dose 11.000 uM; for inhibition at 33 µM: read-out: HIV-1 Protease % Inhib, dose 33.000 uM. In short, it runs like this: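 Biotinylated, FITC-labeled peptide substrate (20 μl of 0.2 μM) incubated with HIV-1 protease (10 μl of 0.1 μM) and compound in 0.1 M sodium acetate pH 5.5, 1.0 M NaCl, 0.05% NP-40, 1 h, room temperature, dark. Streptavidin beads then capture uncleaved substrate; filtered labeled product read by fluorescence, giving percent inhibition.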

[1] abbreviates: read-out: HIV-1 Protease % Inhib, dose 1.000 uM.
Where [2] appears, read: read-out: HIV-1 Protease % Inhib, dose 10.000 uM.
[3] abbreviates: read-out: HIV-1 Protease % Inhib, dose 100.000 uM.
[4] abbreviates: dose 1.000 uM, read-out: HIV-1 Protease % Inhib.
The mark [5] stands for this setting: dose 10.000 uM, read-out: HIV-1 Protease % Inhib.
The mark [6] stands for this setting: dose 100.000 uM, read-out: HIV-1 Protease % Inhib.

SMILES strings stand for the structures. Several values for one entry are separate records, joined by “and”; a condition that tells them apart may be missing. Equal values may be shown once. Read-outs that look alike come from different tables or passages of the source. Where only a bound is given, the exact number is not on record here.

In the case of `CCC(c1ccccc1)c1c(O)c2ccc3ccccc3c2oc1=O` (stereo not drawn) [Example 99, 2H-Naphtho[1,2-b]pyran-2-one, 4-hydroxy-3-(1-phenylpropyl)-], the inhibition at 1 µM under setting [1] was < 10%. The inhibition at 10 µM under setting [2] was < 10%. For the same molecule, the inhibition at 100 µM under setting [3] stood at 43.3%.
In the case of `CCC(c1ccc(OCC(O)CO)cc1)c1c(O)c2ccccc2oc1=O` (stereo not drawn) [Example 100, Coumarin, 4-hydroxy-3-[1-[4-(2,3-dihydroxy)propoxyphenyl]propyl]-], the “HIV-1 Protease % Inhib” value reads like this: (dose 10.000 uM) < 10%; (dose 100.000 uM) 40.3%. Also, under setting [1], the inhibition at 1 µM was < 10%. The inhibition at 10 µM under setting [2] came out at 12.3%. Further, the inhibition at 100 µM under setting [3] is 53%.
As for `CC(c1cccc(C#N)c1)c1c(O)c2ccccc2oc1=O` (stereo not drawn) [Example 101, Coumarin, 3-[1-(3-Cyanophenyl)ethyl]-4-hydroxy-], under setting [1], the inhibition at 1 µM is < 10%. Also, under setting [2], the inhibition at 10 µM is < 10%. The inhibition at 100 µM under setting [3] came out at 39.2%.
Regarding `CCC(c1cccc(OC)c1)c1c(O)c2ccccc2oc1=O` (stereo not drawn) [Example 102, Coumarin, 4-hydroxy-3-[1-(3-methoxyphenyl)propyl]-], the “HIV-1 Protease % Inhib” value (dose 100.000 uM) stood at 75.63%. Further, the inhibition at 1 µM under setting [1] is < 10%. Under setting [2], the inhibition at 10 µM was found to be 24%. Moreover, the inhibition at 100 µM under setting [3] was 78.8%.
`CCC(c1cccc(O)c1)c1c(O)c2ccccc2oc1=O` (stereo not drawn) [Example 103, Coumarin, 4-hydroxy-3-[1-(3-hydroxyphenyl)propyl]-]: the “HIV-1 Protease % Inhib” value (dose 100.000 uM) was 87.29% and 73.35%. For the same molecule, under setting [1], the inhibition at 1 µM was < 10%. For the same molecule, under setting [2], the inhibition at 10 µM turned out to be 25.7%. Moreover, under setting [3], the inhibition at 100 µM stood at 80.9%.
For `O=c1oc2ccccc2c(O)c1C(C1CC1)C1CC1` [Example 104, 3-(dicyclopropyl)methyl-4-hydroxycoumarin], the IC50 (HIV-1 Protease IC50) was 6.74 µM. In addition, the inhibition at 1 µM under setting [1] came to 12.2%. Besides, under setting [2], the inhibition at 10 µM was 68.7%. In addition, under setting [3], the inhibition at 100 µM stood at 106%.
Consider `CCC(c1ccccc1)c1c(O)c2ccccc2oc1=O` (stereo not drawn) [Example 105, 4-hydroxy-3-(1-phenylpropyl)-coumarin], for which the IC50 (read-out: HIV-1 Protease IC50) is 4.88 µM and 3.88 µM.
As to `CCC(=O)c1ccc(C(CC)c2c(O)c3ccccc3oc2=O)cc1` (stereo not drawn) [Example 106, Coumarin, 4-hydroxy-3-[1-(4-propionylphenyl)propyl]-], under setting [1], the inhibition at 1 µM is < 10%. Under setting [2], the inhibition at 10 µM was 11.7%. The inhibition at 100 µM under setting [3] is 71%.
The like results for `CCC(c1ccccc1)c1c(O)c2c(oc1=O)CCCCCC2` (stereo not drawn) [Example 108, 5,6,7,8,9,10-Hexahydro-4-hydroxy-3-(1-phenylpropyl)-2H-cycloocta[b]pyran-2-one] were, in that order, 72.6%, 95.5% and 94.2%.
In the same order, the values of `CCC(c1ccccc1)c1c(O)c2c(oc1=O)CCCCC2` (stereo not drawn) [Example 110, 6,7,8,9-Tetrahydro-4-hydroxy-3-(1-phenylpropyl)-cyclohepta[b]pyran-2(5H)-one] are 16.9%, 73.8% and 99.9%.
For the molecule `O=c1oc2c(c(O)c1C(c1ccccc1)C1CC1)CCC2` (stereo not drawn) [Example 113, 3-(Cyclopropylphenylmethyl)-6,7-dihydro-4-hydroxy-cyclopenta[b]pyran-2(5H)-one], under setting [4], the inhibition at 1 µM was 39.6%. In addition, the inhibition at 10 µM under setting [5] was 99.8%. Also, the inhibition at 100 µM under setting [6] amounted to 109%.
As to `O=c1oc2c(c(O)c1C(c1ccccc1)C1CC1)CCCCCCCCCC2` (stereo not drawn) [Example 114, 3-(Cyclopropylphenylmethyl)-5,6,7,8,9,10,11,12,13,14-decahydro-4-hydroxy-2H-cyclododeca[b]pyran-2-one], the inhibition at 1 µM under setting [4] was < 10%. Besides, under setting [5], the inhibition at 10 µM is < 10%. For the same molecule, under setting [6], the inhibition at 100 µM was determined as 14.1%.
In the case of `O=c1oc2c(c(O)c1C(C1CC1)C1CC1)CCCCCC2` [Example 118, 3-(Dicyclopropylmethyl)-5,6,7,8,9,10-hexahydro-4-hydroxy-2H-cycloocta[b]pyran-2-one], the inhibition at 0.41 µM was found to be 68.7%, the inhibition at 1.23 µM was 87.9%, the inhibition at 3.7 µM came to 99% and the inhibition at 11 µM was 110%. Besides, the inhibition at 33 µM was 103%. For the same molecule, under setting [3], the inhibition at 100 µM is 105%.
On to `CCC(c1ccccc1)c1c(O)c2ccc(OCCN3CCOCC3)cc2oc1=O` (stereo not drawn) [Example 141, 4-Hydroxy-7-(2-morpholin-4-yl-ethoxy)-3-(1-phenyl-propyl)-chromen-2-one], for which the inhibition at 1 µM under setting [1] came to 14.2%. In addition, under setting [2], the inhibition at 10 µM was determined as 77.4%. The inhibition at 100 µM under setting [3] amounted to 103%.
The like results for `O=c1oc2ccccc2c(O)c1C1(c2ccccc2)CC1` [Example 142, 4-Hydroxy-3-(1-phenyl-cyclopropyl)-chromen-2-one] were, in that order, < 10%, 15.7% and 71.8%.
The like results for `CCC(c1cccc(C(=O)NC2c3ccccc3CC2O)c1)c1c(O)c2ccccc2oc1=O` (stereo not drawn) [Example 143, N-(2-Hydroxy-indan-1-yl)-3-(1-(4-hydroxy-2-oxo-2H-chromen-3-yl)-propyl)-benzamide] were, in that order, 10.8%, 77.1% and 92.1%.
The like results for `CCC(Cc1ccccc1)c1c(O)c2ccccc2oc1=O` (stereo not drawn) [Example 144, 3-(1-Benzyl-propyl)4-hydroxy-chromen-2-one] were, in that order, 25.9%, 77% and 86%.
On to `O=c1oc2ccccc2c(O)c1C(CCc1ccccc1)Cc1ccccc1` (stereo not drawn) [Example 145, 3-(1-Benzyl-3-phenyl-propyl)4-hydroxy-chromen-2-one], for which the inhibition at 1 µM under setting [1] turned out to be 37%. Under setting [2], the inhibition at 10 µM worked out at 81%. In addition, the inhibition at 100 µM under setting [3] came to 97%.
Regarding `CCCC(Cc1ccccc1)c1c(O)c2ccccc2oc1=O` (stereo not drawn) [Example 147, 3-(1 -Benzyl-butyl)-4-hydroxy-chromen-2-one], the inhibition at 1 µM under setting [1] is 34.7%. In addition, under setting [2], the inhibition at 10 µM was found to be 86.3%. Also, under setting [3], the inhibition at 100 µM came out at 96.5%.
Regarding `CCC(c1cccc(C(=O)NCc2nc3ccccc3[nH]2)c1)c1c(O)c2ccccc2oc1=O` (stereo not drawn) [Example 148, N-(1H-Benzoimidazol-2-ylmethyl)-3-(1-(4-hydroxy-2-oxo-2H-chromen-3-yl)-propyl)-benzamide], the inhibition at 1 µM under setting [1] is < 10%. For the same molecule, the inhibition at 10 µM under setting [2] turned out to be 57.9%. Also, the inhibition at 100 µM under setting [3] was 93.7%.
In the case of `CC(=O)Oc1ccc(C(C)(C)c2c(O)c3ccccc3oc2=O)cc1` [Example 150, Acetic acid 4-(1-(4-Hydroxy-2-oxo-2H-chromen-3-yl)-l-methyl-ethyl)-phenylester], the inhibition at 1 µM under setting [1] is < 10%. Besides, the inhibition at 10 µM under setting [2] turned out to be 62.4%. Further, the inhibition at 100 µM under setting [3] turned out to be 93%.
In the case of `CCC(c1ccccc1)c1c(O)c2ccc(OCCOCCOC)cc2oc1=O` (stereo not drawn) [Example 151, 4-Hydroxy-7-(2-(2-methoxy-ethoxy)-ethoxy)-3-(1-phenyl-propyl)-chromen-2-one], the inhibition at 1 µM under setting [1] is 29.1%. The inhibition at 10 µM under setting [2] came out at 82.8%. Besides, the inhibition at 100 µM under setting [3] is 92.4%.
`Cc1cc(C)c2c(c1)C(c1c(O)c3ccccc3oc1=O)CCO2` (stereo not drawn) [Example 153, 4-Hydroxy-6',8'-Dimethyl-3',4'-dihydro-2'H-[3',4']bicromenyl-2-one]: the “HIV-1 Protease % Inhib” value (dose 100.000 uM) is 79.57% and 115.36%. Further, the inhibition at 1 µM under setting [1] is < 10%. Moreover, under setting [2], the inhibition at 10 µM amounted to 34%.
As for `CCC(CCc1ccccc1)c1c(O)c2ccccc2oc1=O` (stereo not drawn) [Example 155, 3-(1-Ethyl-3-phenyl-propyl)4-hydroxy-chromen-2-one], the inhibition at 1 µM under setting [1] came to 15.4%. Moreover, the inhibition at 10 µM under setting [2] came to 74.9%. In addition, the inhibition at 100 µM under setting [3] amounted to 91.9%.
As for `CCC(CCCc1ccccc1)c1c(O)c2ccccc2oc1=O` (stereo not drawn) [Example 156, 3-(1-Ethyl4-phenyl-butyl)-4-hydroxy-chromen-2-one], under setting [1], the inhibition at 1 µM is 17.1%. Moreover, the inhibition at 10 µM under setting [2] is 33.6%. Further, the inhibition at 100 µM under setting [3] came to 63.7%.
`COC(=O)C(C(=O)OC)C(c1ccccc1)c1c(O)c2ccccc2oc1=O` (stereo not drawn) [Example 157, 2-((4-Hydroxy-2-oxo-2H-chromen-3-yl)-phenyl-methyl)-malonic acid dimethyl ester]: the inhibition at 1 µM under setting [1] was < 10%. Moreover, under setting [2], the inhibition at 10 µM is < 10%. Further, the inhibition at 100 µM under setting [3] is 64%.
As for `O=c1oc2ccccc2c(O)c1C1CCOc2ccccc21` (stereo not drawn) [Example 158, 4-Hydroxy-3',4'-dihydro-2'H-[3,4]bichromenyl-2-one], the inhibition at 1 µM under setting [1] is < 10%. The inhibition at 10 µM under setting [2] came to 26.7%. In addition, the inhibition at 100 µM under setting [3] amounted to 93.4%.
For the molecule `O=c1oc2ccccc2c(O)c1C(CCO)c1ccccc1` (stereo not drawn) [Example 160, 4-Hydroxy-3-(3-hydroxy-1-phenyl-propyl)-chromen-2-one], the inhibition at 0.41 µM was < 10%, the inhibition at 1.23 µM was < 10%, the inhibition at 3.7 µM was < 10% and the inhibition at 11 µM came to 14.2%. Further, the inhibition at 33 µM came to 40.4%. Besides, under setting [3], the inhibition at 100 µM is 82.6%.
